Patent publication US20070021385A1, “Compositions and methods for wood preservation” (priority 2005, published 2007)

Tests used:
brown rots or white rots = assay: Accelerated decay testing in the lab; conditions: confirmed by accelerated decay testing in the lab
Source text: Provided herein is an organic composition and method for use thereof in treatment of cellulosic material, more particularly wood. The composition comprises an azole or quaternary ammonium fungicide compound, and a pyrethroid insecticide. The composition imparts to the treated wood resistance to both fungi and insects. […] This has been confirmed by accelerated decay testing in the lab.

decay fungi = assay: AWPA E7-01 field stake test, decay ratings, Gainesville, Florida; format: in vivo; design: Average Decay Ratings: scale not given here
Procedure: (§1) Preservative treating solutions were prepared by the mixing the concentrates in Example 1 with ethanol. The treated stakes were installed in Gainesville, Fla. for field performance evaluation following the procedure described in American Wood Preservers' Association (AWPA) Standard E7-01: “Standard Method of Evaluating Wood Preservatives by Field Tests with Stakes”.
(§2) Preservative treating solutions were prepared by the mixing the concentrates in Example 1 with toluene. The treated stakes were installed in Gainesville, Fla. for field performance evaluation following the procedure described in American Wood Preservers' Association (AWPA) Standard E7-01: “Standard Method of Evaluating Wood Preservatives by Field Tests with Stakes”.
Preservative treating solutions were prepared by the mixing the concentrates in Example 2 and 13. The treated stakes were installed in Gainesville, Fla. for field performance evaluation following the procedure described in American Wood Preservers' Association (AWPA) Standard E7-01: “Standard Method of Evaluating Wood Preservatives by Field Tests with Stakes”. […]
(§3) Preservative treating solutions were prepared by the mixing the concentrates in Example 1 with white spirits. The treated stakes were installed in Gainesville, Fla. for field performance evaluation following the procedure described in American Wood Preservers' Association (AWPA) Standard E7-01: “Standard Method of Evaluating Wood Preservatives by Field Tests with Stakes”.

termites = assay: AWPA E7-01 field stake test, termite ratings, Gainesville, Florida; format: in vivo; design: Average Termite Ratings: scale not given here
Procedure: as §1, §2
Preservative treating solutions were prepared by the mixing the concentrates in Example 2 and 13. The treated stakes were installed in Gainesville, Fla. for field performance evaluation following the procedure described in American Wood Preservers' Association (AWPA) Standard E7-01: “Standard Method of Evaluating Wood Preservatives by Field Tests with Stakes”.
as §3

## CC1(C)C(C=C(Cl)Cl)C1C(=O)OC(C#N)c1cccc(Oc2ccccc2)c1 (centres unmarked) [cypermethrin]
Brown rots or white rots
  fungicidal activity against brown rots or white rots: do not have fungicidal activity

## Cc1c(COC(=O)[C@@H]2[C@H](/C=C(\Cl)C(F)(F)F)C2(C)C)cccc1-c1ccccc1 (racemic) [bifenthrin]
Brown rots or white rots
  fungicidal activity against brown rots or white rots: do not have fungicidal activity

## CC1(C)C(C=C(Cl)Cl)C1C(=O)OCc1cccc(Oc2ccccc2)c1 (centres unmarked) [permethrin]
Brown rots or white rots
  fungicidal activity against brown rots or white rots: do not have fungicidal activity

## CC(C)(C)C(O)(CCc1ccc(Cl)cc1)Cn1cncn1 (racemic) [Tebuconazole, (RS)-1-p-chlorophenyl-4,4-dimethyl-3-(1H -1,2,4-triazol-1-ylmethyl)pentan-3-ol]
Decay fungi; different retention levels, text summary of Table 1A
  protection / bio-efficacy against fungal attack (in words): certain degree of protection against fungal attack
Decay fungi; retention 0.32 kg/m^3, 12 months, Table 1A, Example 14 ethanol
  Average Decay Ratings: 8.2
Decay fungi; retention 0.32 kg/m^3, 12 months, Table 2A, Example 15 toluene
  Average Decay Ratings: 8.2
Decay fungi; retention 0.32 kg/m^3, 12 months, Table 3A, Example 16 (concentrates of Examples 2 and 13)
  Average Decay Ratings: 8.2
Decay fungi; retention 0.32 kg/m^3, 24 months, Table 1A, Example 14 ethanol
  Average Decay Ratings: 2.6
Decay fungi; retention 0.32 kg/m^3, 24 months, Table 2A, Example 15 toluene
  Average Decay Ratings: 2.6
Decay fungi; retention 0.32 kg/m^3, 24 months, Table 3A, Example 16 (concentrates of Examples 2 and 13)
  Average Decay Ratings: 2.6
Decay fungi; retention 0.32 kg/m^3, 36 months, Table 1A, Example 14 ethanol
  Average Decay Ratings: 0.0
Decay fungi; retention 0.32 kg/m^3, 36 months, Table 2A, Example 15 toluene
  Average Decay Ratings: 0.0
Decay fungi; retention 0.32 kg/m^3, 36 months, Table 3A, Example 16 (concentrates of Examples 2 and 13)
  Average Decay Ratings: 0.0
Decay fungi; retention 0.32 kg/m^3, 48 months, Table 1A, Example 14 ethanol
  Average Decay Ratings: 0.0
Decay fungi; retention 0.32 kg/m^3, 48 months, Table 2A, Example 15 toluene
  Average Decay Ratings: 0.0
Decay fungi; retention 0.32 kg/m^3, 48 months, Table 3A, Example 16 (concentrates of Examples 2 and 13)
  Average Decay Ratings: 0.0
Decay fungi; retention 0.48 kg/m^3, 12 months, Table 1A, Example 14 ethanol
  Average Decay Ratings: 5.8
Decay fungi; retention 0.48 kg/m^3, 12 months, Table 2A, Example 15 toluene
  Average Decay Ratings: 5.8
Decay fungi; retention 0.48 kg/m^3, 12 months, Table 3A, Example 16 (concentrates of Examples 2 and 13)
  Average Decay Ratings: 5.8
Decay fungi; retention 0.48 kg/m^3, 24 months, Table 1A, Example 14 ethanol
  Average Decay Ratings: 0.8
Decay fungi; retention 0.48 kg/m^3, 24 months, Table 2A, Example 15 toluene
  Average Decay Ratings: 0.8
Decay fungi; retention 0.48 kg/m^3, 24 months, Table 3A, Example 16 (concentrates of Examples 2 and 13)
  Average Decay Ratings: 0.8
Decay fungi; retention 0.48 kg/m^3, 36 months, Table 1A, Example 14 ethanol
  Average Decay Ratings: 0.0
Decay fungi; retention 0.48 kg/m^3, 36 months, Table 2A, Example 15 toluene
  Average Decay Ratings: 0.0
Decay fungi; retention 0.48 kg/m^3, 36 months, Table 3A, Example 16 (concentrates of Examples 2 and 13)
  Average Decay Ratings: 0.0
Decay fungi; retention 0.48 kg/m^3, 48 months, Table 1A, Example 14 ethanol
  Average Decay Ratings: 0.0
Decay fungi; retention 0.48 kg/m^3, 48 months, Table 2A, Example 15 toluene
  Average Decay Ratings: 0.0
Decay fungi; retention 0.48 kg/m^3, 48 months, Table 3A, Example 16 (concentrates of Examples 2 and 13)
  Average Decay Ratings: 0.0
Decay fungi; retention 0.64 kg/m^3, 12 months, Table 1A, Example 14 ethanol
  Average Decay Ratings: 8.7
Decay fungi; retention 0.64 kg/m^3, 12 months, Table 2A, Example 15 toluene
  Average Decay Ratings: 8.7
Decay fungi; retention 0.64 kg/m^3, 12 months, Table 3A, Example 16 (concentrates of Examples 2 and 13)
  Average Decay Ratings: 8.7
Decay fungi; retention 0.64 kg/m^3, 24 months, Table 1A, Example 14 ethanol
  Average Decay Ratings: 1.2
Decay fungi; retention 0.64 kg/m^3, 24 months, Table 2A, Example 15 toluene
  Average Decay Ratings: 1.2
Decay fungi; retention 0.64 kg/m^3, 24 months, Table 3A, Example 16 (concentrates of Examples 2 and 13)
  Average Decay Ratings: 1.2
Decay fungi; retention 0.64 kg/m^3, 36 months, Table 1A, Example 14 ethanol
  Average Decay Ratings: 0.0
Decay fungi; retention 0.64 kg/m^3, 36 months, Table 2A, Example 15 toluene
  Average Decay Ratings: 0.0
Decay fungi; retention 0.64 kg/m^3, 36 months, Table 3A, Example 16 (concentrates of Examples 2 and 13)
  Average Decay Ratings: 0.0
Decay fungi; retention 0.64 kg/m^3, 48 months, Table 1A, Example 14 ethanol
  Average Decay Ratings: 0.0
Decay fungi; retention 0.64 kg/m^3, 48 months, Table 2A, Example 15 toluene
  Average Decay Ratings: 0.0
Decay fungi; retention 0.64 kg/m^3, 48 months, Table 3A, Example 16 (concentrates of Examples 2 and 13)
  Average Decay Ratings: 0.0
termites; different retention levels, text summary of Table 1B
  insect / termite attack on treated wood (in words): severe insect attack
termites; retention 0.32 kg/m^3, 12 months, Table 1B, Example 14 ethanol
  Average Termite Ratings: 4.2
termites; retention 0.32 kg/m^3, 12 months, Table 2B, Example 15 toluene
  Average Termite Ratings: 4.2
termites; retention 0.32 kg/m^3, 12 months, Table 3B, Example 16 (concentrates of Examples 2 and 13)
  Average Termite Ratings: 4.2
termites; retention 0.32 kg/m^3, 24 months, Table 1B, Example 14 ethanol
  Average Termite Ratings: 0.6
termites; retention 0.32 kg/m^3, 24 months, Table 2B, Example 15 toluene
  Average Termite Ratings: 0.6
termites; retention 0.32 kg/m^3, 24 months, Table 3B, Example 16 (concentrates of Examples 2 and 13)
  Average Termite Ratings: 0.6
termites; retention 0.32 kg/m^3, 36 months, Table 1B, Example 14 ethanol
  Average Termite Ratings: 0.0
termites; retention 0.32 kg/m^3, 36 months, Table 2B, Example 15 toluene
  Average Termite Ratings: 0.0
termites; retention 0.32 kg/m^3, 36 months, Table 3B, Example 16 (concentrates of Examples 2 and 13)
  Average Termite Ratings: 0.0
termites; retention 0.32 kg/m^3, 48 months, Table 1B, Example 14 ethanol
  Average Termite Ratings: 0.0
termites; retention 0.32 kg/m^3, 48 months, Table 2B, Example 15 toluene
  Average Termite Ratings: 0.0
termites; retention 0.32 kg/m^3, 48 months, Table 3B, Example 16 (concentrates of Examples 2 and 13)
  Average Termite Ratings: 0.0
termites; retention 0.48 kg/m^3, 12 months, Table 1B, Example 14 ethanol
  Average Termite Ratings: 4.5
termites; retention 0.48 kg/m^3, 12 months, Table 2B, Example 15 toluene
  Average Termite Ratings: 4.5
termites; retention 0.48 kg/m^3, 12 months, Table 3B, Example 16 (concentrates of Examples 2 and 13)
  Average Termite Ratings: 4.5
termites; retention 0.48 kg/m^3, 24 months, Table 1B, Example 14 ethanol
  Average Termite Ratings: 1.2
termites; retention 0.48 kg/m^3, 24 months, Table 2B, Example 15 toluene
  Average Termite Ratings: 1.2
termites; retention 0.48 kg/m^3, 24 months, Table 3B, Example 16 (concentrates of Examples 2 and 13)
  Average Termite Ratings: 1.2
termites; retention 0.48 kg/m^3, 36 months, Table 1B, Example 14 ethanol
  Average Termite Ratings: 0.0
termites; retention 0.48 kg/m^3, 36 months, Table 2B, Example 15 toluene
  Average Termite Ratings: 0.0
termites; retention 0.48 kg/m^3, 36 months, Table 3B, Example 16 (concentrates of Examples 2 and 13)
  Average Termite Ratings: 0.0
termites; retention 0.48 kg/m^3, 48 months, Table 1B, Example 14 ethanol
  Average Termite Ratings: 0.0
termites; retention 0.48 kg/m^3, 48 months, Table 2B, Example 15 toluene
  Average Termite Ratings: 0.0
termites; retention 0.48 kg/m^3, 48 months, Table 3B, Example 16 (concentrates of Examples 2 and 13)
  Average Termite Ratings: 0.0
termites; retention 0.64 kg/m^3, 12 months, Table 1B, Example 14 ethanol
  Average Termite Ratings: 4.8
termites; retention 0.64 kg/m^3, 12 months, Table 2B, Example 15 toluene
  Average Termite Ratings: 4.8
termites; retention 0.64 kg/m^3, 12 months, Table 3B, Example 16 (concentrates of Examples 2 and 13)
  Average Termite Ratings: 4.8
termites; retention 0.64 kg/m^3, 24 months, Table 1B, Example 14 ethanol
  Average Termite Ratings: 2.0
termites; retention 0.64 kg/m^3, 24 months, Table 2B, Example 15 toluene
  Average Termite Ratings: 2.0
termites; retention 0.64 kg/m^3, 24 months, Table 3B, Example 16 (concentrates of Examples 2 and 13)
  Average Termite Ratings: 2.0
termites; retention 0.64 kg/m^3, 36 months, Table 1B, Example 14 ethanol
  Average Termite Ratings: 0.0
termites; retention 0.64 kg/m^3, 36 months, Table 2B, Example 15 toluene
  Average Termite Ratings: 0.0
termites; retention 0.64 kg/m^3, 36 months, Table 3B, Example 16 (concentrates of Examples 2 and 13)
  Average Termite Ratings: 0.0
termites; retention 0.64 kg/m^3, 48 months, Table 1B, Example 14 ethanol
  Average Termite Ratings: 0.0
termites; retention 0.64 kg/m^3, 48 months, Table 2B, Example 15 toluene
  Average Termite Ratings: 0.0
termites; retention 0.64 kg/m^3, 48 months, Table 3B, Example 16 (concentrates of Examples 2 and 13)
  Average Termite Ratings: 0.0
